System: 242566-281-R-J2-PDC complex spheroid viability
Experiment: Anticancer human tumor 242566-281-R-J2-PDC patient-derived pancreatic carcinoma cell line growth inhibition [CLK]
Conditions: for IC50: curve of first compound; for viability, T/C: stronger effect = lower value
Outline: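 Patient-derived tumor cells grown as complex spheroids with HUVEC endothelial cells and mesenchymal stem cells, treated with drug combinations. Concentrations descend in half-log steps from near clinical Cmax, or from 10 microM if Cmax unknown.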

[1] = second compound 0.0316 µM, first compound 0.0316 µM
[2] = second compound 0.0316 µM, first compound 0.1 µM
[3] = second compound 0.0316 µM, first compound 0.316 µM
[4] = second compound 0.0316 µM, first compound 1 µM
[5] = second compound 0.0316 µM, first compound 3.16 µM
[6] = second compound 0.0316 µM, first compound 10 µM
[7] = second compound 0.1 µM, first compound 0.0316 µM
[8] = second compound 0.1 µM, first compound 0.1 µM
[9] = second compound 0.1 µM, first compound 0.316 µM
[10] = second compound 0.1 µM, first compound 1 µM
[11] = second compound 0.1 µM, first compound 3.16 µM
[12] = second compound 0.1 µM, first compound 10 µM
[13] = second compound 0.316 µM, first compound 0.0316 µM
[14] = second compound 0.316 µM, first compound 0.1 µM
[15] = second compound 0.316 µM, first compound 0.316 µM
[16] = second compound 0.316 µM, first compound 1 µM
[17] = second compound 0.316 µM, first compound 3.16 µM
[18] = second compound 0.316 µM, first compound 10 µM
[19] = second compound 1 µM, first compound 0.0316 µM
[20] = second compound 1 µM, first compound 0.1 µM
[21] = second compound 1 µM, first compound 0.316 µM
[22] = second compound 1 µM, first compound 1 µM
[23] = second compound 1 µM, first compound 3.16 µM
[24] = second compound 1 µM, first compound 10 µM
[25] = second compound 3.16 µM, first compound 0.0316 µM
[26] = second compound 3.16 µM, first compound 0.1 µM
[27] = second compound 3.16 µM, first compound 0.316 µM
[28] = second compound 3.16 µM, first compound 1 µM
[29] = second compound 3.16 µM, first compound 3.16 µM
[30] = second compound 3.16 µM, first compound 10 µM
[31] = second compound 10 µM, first compound 0.0316 µM
[32] = second compound 10 µM, first compound 0.1 µM
[33] = second compound 10 µM, first compound 0.316 µM
[34] = second compound 10 µM, first compound 1 µM
[35] = second compound 10 µM, first compound 3.16 µM
[36] = second compound 10 µM, first compound 10 µM
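Also: spheroids exposed to compounds for 7 days before readout.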
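For viability, T/C in this document: 100% = DMSO vehicle control wells.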

`CCCS(=O)(=O)Nc1ccc(F)c(C(=O)c2c[nH]c3ncc(-c4ccc(Cl)cc4)cc23)c1F` + CNC(=O)c1ccc(Nc2nc(OC3CCCC3)c3c(-c4ccc5nc(C)oc5c4)c[nH]c3n2)c(OC)c1 gave an IC50 (second compound 0.0316 µM) of 5930 nM, an IC50 (second compound 0.1 µM) of 5310 nM and an IC50 (second compound 0.316 µM) of 3850 nM. For the same compound, the IC50 (second compound 1 µM) was 2140 nM, the IC50 (second compound 3.16 µM) was 379 nM and the IC50 (second compound 10 µM) was less than 31.6 nM. For the same compound, the viability, T/C [1] was 89.8%, the viability, T/C [2] was 99.1% and the viability, T/C [3] was 86.6%. The viability, T/C [4] was 125%, the viability, T/C [5] was 104% and the viability, T/C [6] was 7.61%. The viability, T/C [7] was 82.2%, the viability, T/C [8] was 92.3% and the viability, T/C [9] was 88.2%. For the same compound, the viability, T/C [10] was 76.7%, the viability, T/C [11] was 87.9% and the viability, T/C [12] was 6.61%. It also gave a viability, T/C [13] of 74.5%, a viability, T/C [14] of 81.1% and a viability, T/C [15] of 59.9%. The viability, T/C [16] was 63.1%, the viability, T/C [17] was 61.3% and the viability, T/C [18] was 10.2%. It also gave a viability, T/C [19] of 75.2%, a viability, T/C [20] of 63.2% and a viability, T/C [21] of 66.7%. The viability, T/C [22] was 64.8%, the viability, T/C [23] was 42.6% and the viability, T/C [24] was 11.8%. For the same compound, the viability, T/C [25] was 54.9%, the viability, T/C [26] was 50.6% and the viability, T/C [27] was 50.2%. The viability, T/C [28] was 44.6%, the viability, T/C [29] was 26.5% and the viability, T/C [30] was 16.4%. For the same compound, the viability, T/C [31] was 49.2%, the viability, T/C [32] was 47% and the viability, T/C [33] was 53%. For the same compound, the viability, T/C [34] was 47%, the viability, T/C [35] was 30.1% and the viability, T/C [36] was 17.9%.
Compound `COc1cccc2c1C(=O)c1c(O)c3c(c(O)c1C2=O)CC(O)(C(=O)CO)CC3OC1CC(N)C(O)C(C)O1` (stereo unspecified) + CN1CCN(c2cc(C(=O)Nc3cc4cc(-c5cnn(C)c5)ccc4cn3)ccn2)CC1 has an IC50 (second compound 0.0316 µM) of 55 nM, an IC50 (second compound 0.1 µM) of 50 nM and an IC50 (second compound 0.316 µM) of less than 31.6 nM. For the same compound, the IC50 (second compound 1 µM) was less than 31.6 nM, the IC50 (second compound 3.16 µM) was less than 31.6 nM and the IC50 (second compound 10 µM) was less than 31.6 nM. The viability, T/C [1] was 67%, the viability, T/C [2] was 31.7% and the viability, T/C [3] was 8.7%. For the same compound, the viability, T/C [4] was 4.2%, the viability, T/C [5] was 1.44% and the viability, T/C [6] was 2.53%. The viability, T/C [7] was 66.5%, the viability, T/C [8] was 25.1% and the viability, T/C [9] was 5.6%. The viability, T/C [10] was 2.26%, the viability, T/C [11] was 1.22% and the viability, T/C [12] was 1.37%. For the same compound, the viability, T/C [13] was 26.1%, the viability, T/C [14] was 7.56% and the viability, T/C [15] was 1.25%. For the same compound, the viability, T/C [16] was 1.1%, the viability, T/C [17] was 1.58% and the viability, T/C [18] was 1.58%. The viability, T/C [19] was 4.67%, the viability, T/C [20] was 4.62% and the viability, T/C [21] was 2.83%. It also gave a viability, T/C [22] of 3.28%, a viability, T/C [23] of 2.48% and a viability, T/C [24] of 2.27%. It also gave a viability, T/C [25] of 6.53%, a viability, T/C [26] of 5.78% and a viability, T/C [27] of 5.19%. The viability, T/C [28] was 3.29%, the viability, T/C [29] was 2.58% and the viability, T/C [30] was 1.42%. It also gave a viability, T/C [31] of 1.13%, a viability, T/C [32] of 1.22% and a viability, T/C [33] of 0.74%. The viability, T/C [34] was 0.66%, the viability, T/C [35] was 0.57% and the viability, T/C [36] was 0.17%.
`C=CC(=O)N1CCN(c2nc(=O)n(-c3c(C)ccnc3C(C)C)c3nc(-c4c(O)cccc4F)c(F)cc23)C(C)C1` (stereo unspecified) + CNC(=O)c1ccc(Nc2nc(OC3CCCC3)c3c(-c4ccc5nc(C)oc5c4)c[nH]c3n2)c(OC)c1 showed an IC50 (second compound 0.0316 µM) greater than 10000 nM, an IC50 (second compound 0.1 µM) greater than 10000 nM and an IC50 (second compound 0.316 µM) greater than 10000 nM. The IC50 (second compound 1 µM) was greater than 10000 nM, the IC50 (second compound 3.16 µM) was greater than 10000 nM and the IC50 (second compound 10 µM) was greater than 10000 nM. The viability, T/C [1] was 104%, the viability, T/C [2] was 94% and the viability, T/C [3] was 120%. For the same compound, the viability, T/C [4] was 128%, the viability, T/C [5] was 89% and the viability, T/C [6] was 73.9%. The viability, T/C [7] was 101%, the viability, T/C [8] was 115% and the viability, T/C [9] was 87.7%. It also gave a viability, T/C [10] of 104%, a viability, T/C [11] of 88.1% and a viability, T/C [12] of 70.9%. The viability, T/C [13] was 95.7%, the viability, T/C [14] was 92% and the viability, T/C [15] was 74.3%. The viability, T/C [16] was 87.1%, the viability, T/C [17] was 71.1% and the viability, T/C [18] was 67.3%. It also gave a viability, T/C [19] of 79.3%, a viability, T/C [20] of 68.1% and a viability, T/C [21] of 72.5%. For the same compound, the viability, T/C [22] was 69.6%, the viability, T/C [23] was 70.7% and the viability, T/C [24] was 57.2%. For the same compound, the viability, T/C [25] was 60.5%, the viability, T/C [26] was 52.6% and the viability, T/C [27] was 52.9%. The viability, T/C [28] was 56.4%, the viability, T/C [29] was 58.1% and the viability, T/C [30] was 54.8%. It also gave a viability, T/C [31] of 54.5%, a viability, T/C [32] of 53.6% and a viability, T/C [33] of 58.8%. For the same compound, the viability, T/C [34] was 53%, the viability, T/C [35] was 53.6% and the viability, T/C [36] was 51.8%.

Reference: PubChem BioAssay AID2060622 (Molecular Pharmacology Branch, DTP, NCI, 2025)
